# Target: T1, human HAQ STING isoform (hSTING HAQ) (Homo sapiens, UniProt Q86WV6, G230A/H232R/R293Q/R71H)
# T1 construct: THP1 cells express the naturally occurring human HAQ STING isoform (hSTING HAQ); host or cells: THP1
# Assay: IFN-β mRNA level in THP1 cells (qPCR, STING agonist cellular activity)
# Assay type: cell-based
# Settings: compound at 3.6 μM, 2 hrs, IFNβ expression normalized against GAPDH by the 2^-ΔΔCT method, DMSO = 1.0
# Outline: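 THP1 cells were seeded at 9×10^5 per well, incubated overnight, then treated with compound at 3.6 μM final (0.1% DMSO control) for 2 hrs at 37 °C. IFN-β mRNA was measured by SYBR Green qPCR, normalised to GAPDH by the 2^−ΔΔCT method, in triplicate.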
# T1 sequence (Q86WV6 whole entry R71H/G230A/H232R/R293Q, canonical isoform): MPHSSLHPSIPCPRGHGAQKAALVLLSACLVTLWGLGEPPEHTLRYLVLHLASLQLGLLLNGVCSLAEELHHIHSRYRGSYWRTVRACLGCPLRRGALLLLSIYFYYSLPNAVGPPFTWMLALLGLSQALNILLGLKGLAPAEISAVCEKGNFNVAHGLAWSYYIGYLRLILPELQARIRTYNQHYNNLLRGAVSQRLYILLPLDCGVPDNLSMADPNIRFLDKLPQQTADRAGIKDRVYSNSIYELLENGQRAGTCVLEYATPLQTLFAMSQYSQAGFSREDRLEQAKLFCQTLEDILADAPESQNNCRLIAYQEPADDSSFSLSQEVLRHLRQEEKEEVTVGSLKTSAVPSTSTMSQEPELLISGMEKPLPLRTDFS
row,SMILES,Relative mRNA INFβ/GAPDH THP 1
1,"COc1cc(CN(Cc2cn3c4c(c(N5CCCCC5C)c(F)cc4c2=O)OCC3C)[C@H]2CCCN(c3ccc(N)nc3)C2)ccn1 (stereo partly drawn) [Compound 37, 6-((((S)-1-(6-aminopyridin-3-yl)piperidin-3-yl)((2-methoxypyridin-4-yl)methyl)amino)methyl)-9-fluoro-3-methyl-10-(2-methylpiperidin-1-yl)-2H-[1,4]oxazino[2,3,4-ij]quinolin-7(3H)-one]",6829.2
2,"COc1cc(CN(Cc2cn3c4c(c(C5=CCN(C6CC6)CC5)c(F)cc4c2=O)OCC3C)[C@H]2CCCN(c3ccc(N)nc3)C2)ccn1 (stereo partly drawn) [Compound 59, 6-((((S)-1-(6-aminopyridin-3-yl)piperidin-3-yl)((2-methoxypyridin-4-yl)methyl)amino)methyl)-10-(1-cyclopropyl-1,2,3,6-tetrahydropyridin-4-yl)-9-fluoro-3-methyl-2H-[1,4]oxazino[2,3,4-ij]quinolin-7(3H)-one]",316.7
3,"COc1ccc(CN(Cc2cn3c4c(c(F)c(F)cc4c2=O)OCC3)[C@H]2CCCN(c3ccc(N)nc3)C2)c(OC)c1 [Compound 73, (S)-6-(((1-(6-aminopyridin-3-yl)piperidin-3-yl)(2,4-dimethoxybenzyl)amino)methyl)-9,10-difluoro-2,3-dihydro-7H-[1,4]oxazino[2,3,4-ij]quinolin-7-one]",7.9
4,"COc1cc(CN(Cc2cn3c4c(c(F)c(F)cc4c2=O)OC2(CCC2)C3)[C@H]2CCCN(c3ccc(N)nc3)C2)ccn1 [Compound 49, (S)-6-(((1-(6-aminopyridin-3-yl)piperidin-3-yl)((2-methoxypyridin-4-yl)methyl)amino)methyl)-9,10-difluorospiro[[1,4]oxazino[2,3,4-ij]quinoline-2,1′-cyclobutan]-7(3H)-one]",5276.2
5,"COc1cnccc1CN(Cc1cn2c3c(c(F)c(F)cc3c1=O)OCC2)[C@H]1CCCN(c2cnccn2)C1 [Compound 86, (S)-9,10-difluoro-6-((((3-methoxypyridin-4-yl)methyl)(1-(pyrazin-2-yl)piperidin-3-yl)amino)methyl)-2,3-dihydro-7H-[1,4]oxazino[2,3,4-ij]quinolin-7-one]",1.1
6,"COc1cc(CN(Cc2cn3c4c(c(F)c(F)cc4c2=O)OCC3C)[C@H]2CCCN(c3ccc(NCC4CC4)nc3)C2)ccn1 (stereo partly drawn) [Compound 20, 11-[[[(3S)-1-[6-(cyclopropylmethylamino)-3-pyridyl]-3-piperidyl]-[(2-methoxy-4-pyridyl)methyl]amino]methyl]-6,7-difluoro-2-methyl-4-oxa-1-azatricyclo[7.3.1.0^5,13]trideca-5(13),6,8,11-tetraen-10-one]",2142.1
7,"COc1cc(CN(Cc2cn3c4c(c(N5CC6(CCNCC6)C5)c(F)cc4c2=O)OCC3C)[C@H]2CCCN(c3ccc(N)nc3)C2)ccn1 (stereo partly drawn) [Compound 24, 6-((((S)-1-(6-aminopyridin-3-yl)piperidin-3-yl)((2-methoxypyridin-4-yl)methyl)amino)methyl)-9-fluoro-3-methyl-10-(2,7-diazaspiro[3.5]nonan-2-yl)-2H-[1,4]oxazino[2,3,4-ij]quinolin-7(3H)-one]",437.3
8,"COc1cc(CN(Cc2cn3c4c(c(OCc5ccccc5)c(F)cc4c2=O)OCC3C)[C@H]2CCCN(c3ccc(N)nc3)C2)ccn1 (stereo partly drawn) [Compound 62, 6-((((S)-1-(6-aminopyridin-3-yl)piperidin-3-yl)((2-methoxypyridin-4-yl)methyl)amino)methyl)-10-(benzyloxy)-9-fluoro-3-methyl-2H-[1,4]oxazino[2,3,4-ij]quinolin-7(3H)-one]",915.2
9,"COc1cc(CN(Cc2cn3c4c(c(Br)c(F)cc4c2=O)OCC3C)[C@H]2CCCN(c3ccc(N)nc3)C2)ccn1 (stereo partly drawn) [Compound 55, 6-((((S)-1-(6-aminopyridin-3-yl)piperidin-3-yl)((2-methoxypyridin-4-yl)methyl)amino)methyl)-10-bromo-9-fluoro-3-methyl-2H-[1,4]oxazino[2,3,4-ij]quinolin-7(3H)-one]",655.0
10,"COc1cc(CN(Cc2cn3c4c(cc(F)c(F)c4c2=O)OCC3C)[C@H]2CCCN(c3ccc(N)nc3)C2)ccn1 (stereo partly drawn) [Compound 52, 6-((((S)-1-(6-aminopyridin-3-yl)piperidin-3-yl)((2-methoxypyridin-4-yl)methyl)amino)methyl)-8,9-difluoro-3-methyl-2H-[1,4]oxazino[2,3,4-ij]quinolin-7(3H)-one]",178.2
11,"Nc1ccc(N2CCC[C@H](N(Cc3ccccn3)Cc3cn4c5c(c(F)c(F)cc5c3=O)OCC4)C2)cn1 [Compound 75, (S)-6-(((1-(6-aminopyridin-3-yl)piperidin-3-yl)(pyridin-2-ylmethyl)amino)methyl)-9,10-difluoro-2,3-dihydro-7H-[1,4]oxazino[2,3,4-ij]quinolin-7-one]",1.1
12,"COc1cc(CN(Cc2cn3c4c(c(C5=CCSCC5)c(F)cc4c2=O)OCC3C)[C@H]2CCCN(c3ccc(N)nc3)C2)ccn1 (stereo partly drawn) [Compound 58, 6-((((S)-1-(6-aminopyridin-3-yl)piperidin-3-yl)((2-methoxypyridin-4-yl)methyl)amino)methyl)-10-(3,6-dihydro-2H-thiopyran-4-yl)-9-fluoro-3-methyl-2H-[1,4]oxazino[2,3,4-ij]quinolin-7(3H)-one]",688.4
13,"Cc1cc(CN(Cc2cn3c4c(c(F)c(F)cc4c2=O)OCC3C)[C@H]2CCCN(c3cnccn3)C2)ccn1 (stereo partly drawn) [Compound 14, 9,10-difluoro-3-methyl-6-((((2-methylpyridin-4-yl)methyl)((S)-1-(pyrazin-2-yl)piperidin-3-yl)amino)methyl)-2H-[1,4]oxazino[2,3,4-ij]quinolin-7(3H)-one]",3848.9
14,"COc1cc(CN(Cc2cn3c4c(c(F)c(F)cc4c2=O)OCC3)[C@H]2CCCN(c3cnccn3)C2)ccn1 [Compound 84, (S)-9,10-difluoro-6-((((2-methoxypyridin-4-yl)methyl)(1-(pyrazin-2-yl)piperidin-3-yl)amino)methyl)-2,3-dihydro-7H-[1,4]oxazino[2,3,4-ij]quinolin-7-one]",0.9
15,"COc1cc(CN(Cc2cn3c4c(c(N5CCNCC5)c(F)cc4c2=O)OCC3C)[C@H]2CCCN(c3ccc(N)nc3)C2)ccn1 (stereo partly drawn) [Compound 39, 6-((((S)-1-(6-aminopyridin-3-yl)piperidin-3-yl)((2-methoxypyridin-4-yl)methyl)amino)methyl)-9-fluoro-3-methyl-10-(piperazin-1-yl)-2H-[1,4]oxazino[2,3,4-ij]quinolin-7(3H)-one]",81.3
16,"Cc1cncc(CN(Cc2cn3c4c(c(N5CCN(C)CC5)c(F)cc4c2=O)OCC3)[C@@H]2CCCN(c3cnccn3)C2)c1 [Compound 95, (R)-9-fluoro-10-(4-methylpiperazin-1-yl)-6-((((5-methylpyridin-3-yl)methyl)(1-(pyrazin-2-yl)piperidin-3-yl)amino)methyl)-2,3-dihydro-7H-[1,4]oxazino[2,3,4-ij]quinolin-7-one]",1.2
17,"COc1cc(CN(Cc2cn3c4c(c(N5CCCCC5=O)c(F)cc4c2=O)OCC3C)[C@H]2CCCN(c3ccc(N)nc3)C2)ccn1 (stereo partly drawn) [Compound 61, 6-((((S)-1-(6-aminopyridin-3-yl)piperidin-3-yl)((2-methoxypyridin-4-yl)methyl)amino)methyl)-9-fluoro-3-methyl-10-(2-oxopiperidin-1-yl)-2H-[1,4]oxazino[2,3,4-ij]quinolin-7(3H)-one]",0.7
18,"Nc1ccc(N2CCC[C@H](N(Cc3ccccc3F)Cc3cn4c5c(c(F)c(F)cc5c3=O)OCC4)C2)cn1 [Compound 77, (S)-6-(((1-(6-aminopyridin-3-yl)piperidin-3-yl)(2-fluorobenzyl)amino)methyl)-9,10-difluoro-2,3-dihydro-7H-[1,4]oxazino[2,3,4-ij]quinolin-7-one]",1.3
19,"COc1cc(CN(Cc2cn3c4c(c(O)c(F)cc4c2=O)OCC3C)[C@H]2CCCN(c3ccc(N)nc3)C2)ccn1 (stereo partly drawn) [Compound 63, 6-((((S)-1-(6-aminopyridin-3-yl)piperidin-3-yl)((2-methoxypyridin-4-yl)methyl)amino)methyl)-9-fluoro-10-hydroxy-3-methyl-2H-[1,4]oxazino[2,3,4-ij]quinolin-7(3H)-one]",2.5
20,"CNc1ccc(N2CCC[C@H](N(Cc3ccnc(OC)c3)Cc3cn4c5c(c(F)c(F)cc5c3=O)OCC4C)C2)cn1 (stereo partly drawn) [Compound 16, 9,10-difluoro-6-((((2-methoxypyridin-4-yl)methyl)((S)-1-(6-(methylamino)pyridin-3-yl)piperidin-3-yl)amino)methyl)-3-methyl-2H-[1,4]oxazino[2,3,4-ij]quinolin-7(3H)-one]",114.6
21,"COc1cc(CN(Cc2cn3c4c(c(N5CCC(N6CCOCC6)CC5)c(F)cc4c2=O)OCC3C)[C@H]2CCCN(c3ccc(N)nc3)C2)ccn1 (stereo partly drawn) [Compound 36, 6-((((S)-1-(6-aminopyridin-3-yl)piperidin-3-yl)((2-methoxypyridin-4-yl)methyl)amino)methyl)-9-fluoro-3-methyl-10-(4-morpholinopiperidin-1-yl)-2H-[1,4]oxazino[2,3,4-ij]quinolin-7(3H)-one]",9395.6
22,"COc1cc(CN(Cc2cn3c4c(c(F)c(F)cc4c2=O)OCC3)[C@H]2CCCN(c3ccc([N+](=O)[O-])nc3)C2)ccn1 [Compound 65, (S)-9,10-difluoro-6-((((2-methoxypyridin-4-yl)methyl)(1-(6-nitropyridin-3-yl)piperidin-3-yl)amino)methyl)-2,3-dihydro-7H-[1,4]oxazino[2,3,4-ij]quinolin-7-one]",7.4
23,"O=c1c(CN(Cc2ccncc2F)[C@H]2CCCN(c3cnccn3)C2)cn2c3c(c(F)c(F)cc13)OCC2 [Compound 87, (S)-9,10-difluoro-6-((((3-fluoropyridin-4-yl)methyl)(1-(pyrazin-2-yl)piperidin-3-yl)amino)methyl)-2,3-dihydro-7H-[1,4]oxazino[2,3,4-ij]quinolin-7-one]",1.2
